From PubChem BioAssay (NCI)
Several values for one entry are separate records, joined by “and”; a condition that tells them apart may be missing. Equal values may be shown once.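 Growth conditions: 96-well plates. Treatment: test compound, 48 hours, 5 concentrations. Analysis: linear interpolation between bracketing concentrations; unreached endpoints set to highest concentration. GI50: concentration for 50% inhibition of growth. TGI denotes the concentration required for complete inhibition of growth.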

How the values were obtained:
Assay in all cases: DTP human tumour cell line panel, 48 h
[1] = tested on: DU-145 prostate
[2] = tested on: NCI/ADR-RES ovarian
[3] = tested on: MCF7 breast
[4] = tested on: HS 578T breast
[5] = tested on: BT-549 breast
[6] = tested on: M19-MEL melanoma
[7] = tested on: HOP-18 NSCLC
[8] = tested on: SNB-78 CNS
[9] = tested on: DMS 114 small cell lung
[10] = tested on: DLD-1 colon

| SMILES | TGI [1] [µM] | GI50 [2] | TGI [2] [µM] | GI50 [3] | TGI [3] [µM] | GI50 [4] | TGI [4] [µM] | GI50 [5] | TGI [5] [µM] | TGI [6] [µM] | TGI [7] [µM] | TGI [8] [µM] | TGI [9] [µM] | TGI [10] [µM] | further results |
| --- | --- | --- | --- | --- | --- | --- | --- | --- | --- | --- | --- | --- | --- | --- | --- |
| CN1CCN(CCCOc2cccc3nc(Nc4cc(Cl)cc(Cl)c4)ccc23)CC1 | 3.13 | 1.72 µM | 3.29 | 1.38 µM | 2.94 | 2.5 µM | 7.07 | 3.43 µM | 13.9 |  |  |  |  |  | GI50 [1]: 1.69 µM |
| C=C1CCC2CC1C(C(=O)c1c[nH]c3ccccc13)=NC2(C)C (stereo unspecified) | > 100 |  | > 100 |  | > 100 |  | > 100 |  | > 100 |  |  |  |  |  |  |
| COc1cc(/C=C/C(=O)c2cccc3ccccc23)cc(OC)c1OC |  |  |  |  |  |  |  |  |  | 38.2 | 24.8 | 12.8 |  |  |  |
| COC(=O)C(C(=O)C(=O)Nc1ccc(C)cc1)c1nc2ccc([N+](=O)[O-])cc2[nH]c1=O (stereo unspecified) |  |  |  |  |  |  |  |  |  | > 100 | > 100 | > 100 | > 100 | > 100 |  |
| CCN(C(=O)N1CCN(c2cc3c(cc2F)c(=O)c(C(=O)O)cn3C2CC2)CC1)c1nc(-c2ccccc2)cs1 | > 100 | 2.88 µM | > 100 | 3.15 µM | > 100 | 3.16 µM | 25.9 | 2.27 µM | 7.91 |  |  |  |  |  | GI50 [1]: 3.31 µM |
| COc1ccc(C(c2ccccc2C(=O)O)c2ccc(OC)c3ccccc23)c2ccccc12 |  |  |  |  |  |  |  |  |  | 27.6 | 13.4 | 50.4 | 21.1 | 22.2 |  |
| c1ccc2c(c1)[nH]c1cnc3c4ncccc4[nH]c3c12 |  |  |  |  |  |  |  |  |  | > 100 |  | > 100 | > 100 | > 100 |  |
| O=C(CCc1nc(=S)[nH][nH]1)Nc1cc(Cl)ccc1Cl |  |  |  |  |  |  |  |  |  | > 100 | > 100 |  | > 100 | > 100 |  |
| Cc1nnc(C[C@@H]2C=C(c3ccc(Cl)cc3)c3ccccc3-n3c(C)nnc32)o1 | > 100 | 1.86 µM | 43.7 | 0.221 µM | > 100 | 0.578 µM | 46.1 | 1.48 µM | 29.2 |  |  |  |  |  | GI50 [1]: 17.6 µM |
| CC1=C(C(=O)Nc2cccc(Cl)c2)C(c2ccccc2O)C(C(=O)Nc2cccc(Cl)c2)=C(C)N1 |  |  |  |  |  |  |  |  |  | 40.6 |  | 57.2 | 54.6 | 33 |  |
| Cc1cccc(C(C)(C)C)c1NC(=O)C(C#N)C1=C(Cl)C(=O)c2ccccc2C1=O (stereo unspecified) | 36.5 |  | 37.7 |  | 32.9 |  | 52.5 |  | 27.5 |  | 24.3 | 33.1 | 38.3 | 33.4 |  |
| Cc1noc2cccc(O)c12 |  |  |  |  |  |  |  |  |  | > 100 | > 100 | > 100 | > 100 | > 100 |  |
| COc1cccc(/C=N/[N-]C(=O)c2ccncc2)c1[O-].[Mn+2].[OH3+] |  |  |  |  |  |  |  |  |  | 46.4 | > 100 | > 100 | 58.7 | > 100 | GI50 [6]: 7.54 µM; GI50 [9]: 14.6 µM; GI50 [7]: 14.7 µM; GI50 [8]: > 100 µM; GI50 [10]: 5.23 µM |
| COC(=O)C(=O)C(CC(=O)Nc1cc(Cl)ccc1Cl)C(=O)OC (stereo unspecified) |  |  |  |  |  |  |  |  |  |  | > 100 | > 100 | > 100 |  |  |
| CC(=O)Nc1ccccc1-c1nc2ccccc2nc1-c1ccccc1 |  |  |  |  |  |  |  |  |  | > 100 | > 100 | > 100 | > 100 | > 100 |  |
| CC(=O)N[C@H](C)[C@@H](O)[C@@H](C)[C@@H]1OC(=O)/C=C/C=C(C)\C=C\[C@]2(C)C[C@@H](NS(C)(=O)=O)C=C[C@@H]2/C=C(C)/C=C/[C@H]1C | > 43.5 | 0.235 µM and 0.127 µM | > 43.5 | 0.00547 µM and 0.00591 µM | > 43.5 | 0.0158 µM and 0.0164 µM | > 43.5 | 0.00898 µM and 0.0242 µM | > 43.5 |  |  |  |  |  |  |
| N#C/C(=C\c1ccc(O)c(O)c1)C(=O)NCc1ccc(C(F)(F)F)cc1 | > 62.3 | 5.19 µM | 24.7 | 21.3 µM | > 69 | 12.6 µM | 46.9 | 10.6 µM | > 53.7 |  |  |  |  |  | GI50 [1]: 16.3 µM |
| NC(N)=NN=c1c(=O)c2ccccc2c1=O | 3.39 | 10.4 µM | 31.7 | 8.89 µM | 27.9 | 10.1 µM | > 100 | 15.7 µM | 29.2 |  |  |  |  |  | GI50 [1]: 1.9 µM |
| O=C1OC(CC(=O)c2ccc(F)cc2)C(Cl)=C1Cl (stereo unspecified) |  |  |  |  |  |  |  |  |  | > 100 | 44.6 | > 100 | > 100 | 47.4 |  |
| CC(Oc1cc2oc(=O)cc(-c3ccccc3)c2cc1Cl)C(=O)O (stereo unspecified) |  |  |  |  |  |  |  |  |  | > 100 | > 100 | > 100 | > 100 | > 100 |  |
